Reference: patent US12551421B2, “N-heptyl-glyceryl ether and synergistically active preservatives” (Evonik Operations GmbH, priority 2020, dated 2026)
Values after ≈ are worked out from the molar mass of the structure shown.

Tests used:
S. aureus = experiment: Preservation challenge test in O/W emulsion base #1, log reduction of viable microorganisms by plate count; type: cell-based; settings: combined with another antimicrobial component in base #1, up to 28 days, FIGS. 12 to 19
Experimental: (§1) An O/W emulsion (base #1) was prepared as follows, and n-heptyl glyceryl ether, further antimicrobial compounds and combinations thereof were added to these bases:
(§2) Processing: • 1. Premix phase A and B separately and heat up to 78° C. • 2. Add phase A1 to A under stirring and wait until everything is dissolved. • 3. Add phase B to A under stirring. (Speed 6, for 30 sec.) Homogenize for 90 sec. using an Ultra Turrax. • 4. Cool down using a water bath • 5. Adjust pH.
(§3) Preparatory to the test, the surface of casein soya bean digest agar for bacteria or Saboraud-dextrose agar without the addition of antibiotics for fungi is inoculated with the recently grown stock culture of each of the specified microorganisms. […]
(§4) To count the viable microorganisms in the inoculated products, the agar medium used for the initial cultivation of the respective microorganism is used. […] At zero hour and at 7, 14 and 28 days 1 ml is removed from the sample and the number of viable microorganisms is determined by plate count. […]
To determine the efficacy of the antimicrobial composition, n-heptyl glyceryl ether, another antimicrobial compound and combinations thereof were incorporated into base as shown above. The antimicrobial activity against S. aureus was then evaluated as described above. […]

A. brasiliensis = experiment: as above; type: cell-based; settings: combined with another antimicrobial component in base #1, up to 28 days, FIGS. 1 to 12
C. albicans = experiment: as above; type: cell-based; settings: combined with another antimicrobial component in base #1, up to 28 days, FIGS. 20 to 25
Experimental: as §1, §2, §3, §4
To determine the efficacy of the antimicrobial composition, n-heptyl glyceryl ether, another antimicrobial compound and combinations thereof were incorporated into base #1 as shown above. The antimicrobial activity against C. albicans was then evaluated as described above. […]

[1] = Water solubility / critical micelle concentration of n-heptyl-glyceryl ether; type: physicochemical; settings: water, without component B); read-out: water solubility before micelles are forming
From the text: N-heptyl-glyceryl ether has a water solubility of approximately 2 g/l before micelles are forming.

CCCCC(CC)COCC(O)CO (stereo not shown) [ethylhexyl glycerin, reference compound]
synergistic antimicrobial effect (log 10 reduction of combination greater than sum of individual components) (S. aureus): No such synergism
synergistic antimicrobial effect (log 10 reduction of combination greater than sum of individual components) (A. brasiliensis): No such synergism
synergistic antimicrobial effect (log 10 reduction of combination greater than sum of individual components) (C. albicans): No such synergism

CCCCCCCOCC(O)CO (stereo not shown) [n-heptyl glyceryl ether]
synergistic antimicrobial effect (log 10 reduction of combination greater than sum of individual components) (S. aureus): synergistic antimicrobial effects
synergistic antimicrobial effect (log 10 reduction of combination greater than sum of individual components) (A. brasiliensis): synergistic antimicrobial effects
synergistic antimicrobial effect (log 10 reduction of combination greater than sum of individual components) (C. albicans): synergistic antimicrobial effects
solubility [1]: ~2000 µg/mL (≈ 10.5 mM)
